Data reported in PMC8476002, “Bergamottin a CYP3A inhibitor found in grapefruit juice inhibits prostate cancer cell growth by downregulating androgen receptor signaling and promoting G0/G1 cell cycle block and apoptosis” (PLoS ONE, 2021).

How the values were obtained:
[1] = system: LNCaP cells; experiment: MTT growth assay, LNCaP; type: cell-based; details: Homo sapiens
Protocol: (§1) Growth of the cells was measured using a MTT assay. Cells were plated (2000 cells/ 96 well or 13,000 cells/ 24 well) for 48 hours then treated with bergamottin for 4 days (96 hours) and then incubated with MTT (3-(4,5-Dimethylthiazol- 2-yl)-2,5-Diphenyltetrazolium bromide) (4 mg/ml) for 2 h. at 37°C. DMSO (vehicle control for bergamottin) levels were compensated in each bergamottin treatment group. Cells were centrifuged at 2000 g for 10 min and the supernatant was discarded. The cell pellet was dissolved in 100/500 μl of DMSO depending on the well size. A plate reader was used to read the absorption at 540 nm. Experiments were performed in octuplet/quadruplet and repeated at least three times.

[2] = system: MDAPCa2b cells; experiment: MTT growth assay, MDAPCa2b; type: cell-based; details: Homo sapiens, MDA-PCa-2b
Protocol: as §1

[3] = system: RWPE1 cells (non transformed prostate epithelium); experiment: MTT growth assay, RWPE1; type: cell-based, human
Protocol: as §1

[4] = system: total AR in LNCaP cells; experiment: Western blotting of total AR, LNCaP; type: cell-based, human; details: bergamottin 10μM, CSSM
Protocol: (§2) Cells were plated at 25–30% confluence when maintained in complete media. When the cells required DHT tretment and media replacement to charcoal stripped serum media (CSSM) they were plated at 35–40% confluence. Bergamottin is dissolved in DMSO (vehicle control) and the amount of DMSO at each treatment group was kept constant. After the completion of the treatment cells were washed in phosphate buffer (PBS) containing 2mMEDTA and 2mM EGTA and lysed in RIPA buffer (50 mM TRIS, 150 mM NaCl, 1% NP40, 0.5% sodium deoxycholate, 0.1% SDS, 2mM EDTA, 2mM EGTA) supplemented with protease and phosphatase inhibitors for total protein isolation. Protein estimation was performed using micro BCA assay and equal protein amponts were loaded on SDS-PAGE gels for western analysis. GAPDH was used as an internal control for total protein. Infrared fluorescent-labeled secondary antibodies were used for detection using Odyssey CLx. The bands were quantified using Odyssey software, which calculates pixel density and automatically takes an area adjacent to each band for background corrections.

[5] = system: total AR in MDAPCa2b cells; experiment: Western blotting of total AR, MDAPCa2b; type: cell-based, human; details: bergamottin 10μM, CSSM
Protocol: as §2

[6] = system: LNCaP cells; experiment: Cell cycle analysis (propidium iodide, flow cytometry), LNCaP; type: cell-based, human
Protocol: (§3) Cell cycle analysis was performed after staining the cells with propidium iodide (PI). For long term bergamottin treatment (96 hrs.) cells were plated at 25–30% confluence and for short term bergamottin treatment (48 hrs.) they were plated at 30–35% confluence. After completion of specified treatment the cells were trypsinized washed with PBS and fixed in 70% ethanol and then stained with PI in nicoletti buffer (propidium iodide 50 μg/ml, 0.1% sodium citrate, 0.1% triton X-100, RNase 1 mg/ml, in DPBS). Cells were analyzed using C6 Accuri flow cytometer (Becton Dickinson, Mountainview, CA). FlowJo software was used to gate and remove the debris (gate on SSC and FSC) and aggregates (FL2 A and FL2H) from the analysis. Watson pragmatic and Dean-Jett -Fox methods was used to assign percentage frequencies to cells present in the different cell cycle stages.

[7] = system: MDAPCa2b cells; experiment: Cell cycle analysis (propidium iodide, flow cytometry), MDAPCa2b; type: cell-based, human
Protocol: as §3

[8] = system: LNCaP cells; experiment: TUNEL apoptosis detection assay, LNCaP; type: cell-based, human; details: 10μM, 4 days
Protocol: To detect apoptosis in the cells after bergamottin treatment In Situ cell death detection kit from Sigma-Aldrich (St. Louis, MO) was used. This apoptosis detection kit fluorescently labels the single and double-stranded DNA breaks caused due to apoptosis using terminal deoxynucleotidyl transferase (TUNEL-reaction). The cells were plated in poly- D- lysine coated 35 mm Glass bottom dish (Cellvis catalog# D35C4-20-1.5-N), treated with bergamottin for the specified time, and dosage and then stained with the kit reagents. The kit recommended protocol was followed. After the staining, the confocal microscope was used to procure images of the cells. The TUNEL assay preferentially labels apoptosis in comparison to necrosis and positive apoptosis is recognized when cells incorporate fluorescent labelled nucleotide (Ex 450 to 500nm and Em 515 to 565-green).

[9] = treatment 96 hours (methods) / 120 hours (Fig 1 legend), read-out: bergamottin concentration giving 50% growth reduction

IC50 [1, 9]: 2.4 µM
SMILES: CC(C)=CCC/C(C)=C/COc1c2ccoc2cc2oc(=O)ccc12 [bergamottin]
inhibition at 10 µM ([1]; 10μM): 60% | inhibition at 10 µM ([2]; 10μM): 60% | IC50 [2, 9]: 4 µM | inhibition at 10 µM ([3]; Homo sapiens, RWPE-1, RWPE1, 10μM): 60% | effect on growth at lower concentration ([3]; RWPE1, lower concentration): does not effect growth | downregulation of total AR levels [4]: 50% | downregulation of total AR levels [5]: 50% | G1 frequency, Dean-Jett-Fox ([6]; Berg 5μM, 96 hrs.): 90.81 ±1.7% | G2 frequency, Dean-Jett-Fox ([6]; Berg 5μM, 96 hrs.): 10.53 ±1.0% | G2 frequency, Watson Pragmatic ([6]; Berg 5μM, 96 hrs.): 8.59 ±3.0% | S frequency, Dean-Jett-Fox ([6]; Berg 5μM, 96 hrs.): -0.3 ±2.3% | S frequency, Watson Pragmatic ([6]; Berg 5μM, 96 hrs.): 0.32±4.3% | G1 frequency, Dean-Jett-Fox ([6]; Berg 10μM, 96 hrs.): 95.1 ±3.4% | G2 frequency, Dean-Jett-Fox ([6]; Berg 10μM, 96 hrs.): 0.22 ±0.4% | G2 frequency, Watson Pragmatic ([6]; Berg 10μM, 96 hrs.): 10.07 ±0.9% | S frequency, Dean-Jett-Fox ([6]; Berg 10μM, 96 hrs.): -0.03 ±1.1% | S frequency, Watson Pragmatic ([6]; Berg 10μM, 96 hrs.): -1.17 ±4.5% | G1 frequency, Dean-Jett-Fox ([6]; Berg 20μM, 48 hrs.): 86.7 ±2.3% | G2 frequency, Dean-Jett-Fox ([6]; Berg 20μM, 48 hrs.): 15.3 ±1.0% | G2 frequency, Watson Pragmatic ([6]; Berg 20μM, 48 hrs.): 13.4 ±4.3% | S frequency, Dean-Jett-Fox ([6]; Berg 20μM, 48 hrs.): -9.8 ±3.0% | S frequency, Watson Pragmatic ([6]; Berg 20μM, 48 hrs.): 4.8 ±3.5% | G1 frequency, Dean-Jett-Fox ([6]; Berg 30μM, 48 hrs.): 96.2 ±3.6% | G2 frequency, Dean-Jett-Fox ([6]; Berg 30μM, 48 hrs.): 7.7 ±0.9% | G2 frequency, Watson Pragmatic ([6]; Berg 30μM, 48 hrs.): 6.3 ±2.3% | S frequency, Dean-Jett-Fox ([6]; Berg 30μM, 48 hrs.): -8.4 ±4.5% | S frequency, Watson Pragmatic ([6]; Berg 30μM, 48 hrs.): 3.7 ±2.6% | G1 frequency, Dean-Jett-Fox ([7]; Berg 5μM, 96 hrs.): 84.2 ±1.5% | G2 frequency, Dean-Jett-Fox ([7]; Berg 5μM, 96 hrs.): 2.3 ±2.2% | G2 frequency, Watson Pragmatic ([7]; Berg 5μM, 96 hrs.): 8.4 ±1.6% | S frequency, Dean-Jett-Fox ([7]; Berg 5μM, 96 hrs.): 12.2 ±1.0% | S frequency, Watson Pragmatic ([7]; Berg 5μM, 96 hrs.): 7.7 ±2.6% | G1 frequency, Dean-Jett-Fox ([7]; Berg 10μM, 96 hrs.): 88.8 ±2.0% | G2 frequency, Dean-Jett-Fox ([7]; Berg 10μM, 96 hrs.): 3.3 ±0.3% | G2 frequency, Watson Pragmatic ([7]; Berg 10μM, 96 hrs.): 6.6 ±1.2% | S frequency, Dean-Jett-Fox ([7]; Berg 10μM, 96 hrs.): 7.4 ±2.5% | S frequency, Watson Pragmatic ([7]; Berg 10μM, 96 hrs.): 5.8 ±2.8% | G1 frequency, Dean-Jett-Fox ([7]; Berg 20μM, 48 hrs.): 84.9 ±0.4% | G2 frequency, Dean-Jett-Fox ([7]; Berg 20μM, 48 hrs.): 9.6 ±0.5% | G2 frequency, Watson Pragmatic ([7]; Berg 20μM, 48 hrs.): 9.6 ±1.8% | S frequency, Dean-Jett-Fox ([7]; Berg 20μM, 48 hrs.): 6.7 ±0.7% | S frequency, Watson Pragmatic ([7]; Berg 20μM, 48 hrs.): 7.1 ±1.7% | G1 frequency, Dean-Jett-Fox ([7]; Berg 30μM, 48 hrs.): 88.4 ±3.6% | G2 frequency, Dean-Jett-Fox ([7]; Berg 30μM, 48 hrs.): 6.8 ±3.2% | G2 frequency, Watson Pragmatic ([7]; Berg 30μM, 48 hrs.): 8.4 ±1.1% | S frequency, Dean-Jett-Fox ([7]; Berg 30μM, 48 hrs.): 3.3 ±3.4% | S frequency, Watson Pragmatic ([7]; Berg 30μM, 48 hrs.): 5.6 ±0.5% | DNA breaks (TUNEL, apoptosis) [8]: increased DNA breaks
